From patent US4425435A, “Cholesterol oxidase and process for producing same” (Takara Shuzo Co., Ltd., priority 1980, dated 1984) come the findings set out here.

The subject of one assay is cholesterol oxidase. The experiment in a line: Effect of inhibitors etc. on activity of the present enzymes.
Conditions: not given
Type of assay: biochemical, Basidiomycetes. As to the method: The enzymatic activity is determined by measurement of the hydrogen peroxide produced by the reaction of the enzyme solution on the substrate cholesterol. The method is based on the sequence of reactions as follows: Thus cholesterol is oxidized by cholesterol oxidase to cholest-5-en-3-one with the evolution of hydrogen peroxide, which couples with 4-aminoantipyrine and phenol in the presence of peroxidase to yield a quinoneimine dye with maximum absorption at 500 nm. To conduct this reaction there is used a reaction mixture, in a final volume of 3.0 ml, composed of 0.1 ml of the enzyme solution, 2 μmoles of cholesterol in 0.1 ml of ethanol, 250 μmoles of phosphate buffer, pH 7.0, 2.46 μmoles of 4-aminoantipyrine, 42 μmoles of phenol, and 24 units of peroxidase obtained from horseradish. The reaction is carried out at 37° C. for 10 minutes with shaking. One unit of cholesterol oxidase activity was defined as the amount of the enzyme which catalyzes the oxidation of 1 μmole of cholesterol per minute at 37° C.
As to `[Fe+2]` [Fe^2+], the “inhibition of the enzyme activity” value was “do not inhibit”. The same measure, in the same setting: the entry for `[Ba+2]` [Ba^2+] is “do not inhibit”; for `[Cu+2]` [Cu^2+] it is “markedly inhibited”; for `c1ccc(-c2ccccn2)nc1` [α,α'-dipyridyl] it is “not inhibitory”. Same read-out and setting: the result for `[Ca+2]` [Ca^2+] reads “do not inhibit”. On the same count and under the same terms, the result for `[Ni+2]` [Ni^2+] reads “do not inhibit”; that for `[Co+2]` [Co^2+], “do not inhibit”. Turning to `N[C@@H](CCC(=O)N[C@@H](CS)C(=O)NCC(=O)O)C(=O)O` [glutathione], the “prevention of inhibition caused by Cu^2+ and Hg^2+” value is “almost completely prevented”. For `O=C(O)CN(CCN(CC(=O)O)CC(=O)O)CC(=O)O` [EDTA], the “inhibition of the enzyme activity” value is “not inhibitory”. The same measure, in the same setting: the result for `Oc1cccc2cccnc12` [β-hydroxyquinoline] reads “not inhibitory”; that for `c1cnc2c(c1)ccc1cccnc12` [o-phenanthroline], “not inhibitory”; that for `[Hg+2]` [Hg^2+], “markedly inhibited”. As to `[Mg+2]` [Mg^2+], the “inhibition of the enzyme activity” value is reported as “do not inhibit”. On the same count and under the same terms, the entry for `[Mn+2]` [Mn^2+] is “do not inhibit”.

Staying with this assay, now noted: 0.01% of Triton X-100.
Consider Triton X-100, for which the “inhibition of the enzyme activity by detergent” value was “inhibit almost completely”.

The test system of a further assay is cholesterol oxidase. The experiment in a line: Substrate specificity: hydrogen peroxide decomposed with peroxidase, chromogen colour. To be noted: hydrogen peroxide liberated from dehydrogenation of the 3β-position. Type of assay: biochemical, Basidiomycetes.
As to `CC[C@H](CC[C@@H](C)[C@H]1CC[C@H]2[C@@H]3CC=C4C[C@@H](O)CC[C@]4(C)[C@H]3CC[C@]12C)C(C)C` [β-cytosterol], the “enzyme acts on the sterol (substrate specificity)” value (from here on “enzyme acts on the sterol”) was “act on”. Same read-out and setting: the result for `C[C@]12CC[C@H](O)CC1=CC[C@@H]1[C@@H]2CC[C@]2(C)C(=O)CC[C@@H]12` [dehydroepiandrosterone] reads “act on”; that for `CC(C)[C@H](C)CC[C@@H](C)[C@H]1CC[C@H]2[C@@H]3CC=C4C[C@@H](O)CC[C@]4(C)[C@H]3CC[C@]12C` [campesterol], “act on”. The same measure, in the same setting: the result for `CC(C)CCC[C@@H](C)[C@H]1CC[C@H]2[C@@H]3CC=C4C[C@@H](O)CC[C@]4(C)[C@H]3CC[C@]12C` [cholesterol] reads “act on”. Same read-out and setting: the result for `CC(C)[C@@H](C)/C=C/[C@@H](C)[C@H]1CC[C@H]2C3=CC=C4C[C@@H](O)CC[C@]4(C)[C@H]3CC[C@]12C` [ergosterol] reads “act on”. For the compound `CC(C)CCC[C@@H](C)[C@H]1CC[C@H]2[C@@H]3CC[C@H]4C[C@@H](O)CC[C@]4(C)[C@H]3CC[C@]12C` [β-cholestanol], the “enzyme acts on the sterol” value is given as “act on”. In the case of `CC[C@H](/C=C/[C@@H](C)[C@H]1CC[C@H]2[C@@H]3CC=C4C[C@@H](O)CC[C@]4(C)[C@H]3CC[C@]12C)C(C)C` [stigmasterol], the “enzyme acts on the sterol” value is recorded as “act on”.

With `C[C@@H](O)[C@H]1CC[C@H]2[C@@H]3CC[C@H]4C[C@@H](O)CC[C@]4(C)[C@H]3CC[C@]12C` [5α-pregnan-3β,20β-diol], the “enzyme acts on the sterol” value is recorded as “act on”. On to `CC(=O)[C@H]1CC[C@H]2[C@@H]3CC=C4C[C@@H](O)CC[C@]4(C)[C@H]3CC[C@]12C` [pregnenolone], for which the “enzyme acts on the sterol” value is reported as “act on”.
